Where two headings read alike, the source gives them in different places.
What was measured:
Type in all cases: cell-based
IKZF1 Ikaros = IKZF1 Ikaros (Homo sapiens, UniProt Q13422+Q96SW2); experiment: Jurkat Cellular Degradation Assay (Ikaros); design: endogenous in cells; host or cells: Jurkat cells; conditions: Jurkat cells, 72 h
Experimental: (§1) Jurkat cells were plated at 80,000 cells/well in 40 μL RPMI+10% FBS in a 384-well cell culture plate prior to using acoustic dispensing technology for adding a compound of interest. Cell cultures were incubated for 72 h at 37° C. and 5% CO2. In order to facilitate analysis, cell cultures were spun down at 200 rpm for 5 min and the supernatant was discarded. After shaking the plate to dislodge the cell pellet, cells were resuspended in 50 μL of Fixation Buffer (eBioscience FoxP3 buffer set 00-5523-00) for 60 min at room temperature. After centrifuging and discarding the supernatant, cells were permeabilized with 50 μL of Permeabilization buffer (eBioscience FoxP3 buffer set 00-5523-00) for 10 min at room temperature. Following permeabilization, cells were spun down and the supernatant was replaced with 20 μL fluorescently labelled antibodies against Helios, Ikaros and Aiolos or corresponding Isotype controls in 1× Permeabilization buffer (Ikaros-Alexa488 [Biolegend, Cat #368408, 1:50], Helios-PE [CST, Cat #29360, 1:50], Aiolos-Alexa647 [Biolegend, Cat #371106 Biolegend, 1:25]) and staining reactions were incubated for 1 h at room temperature while protected from light. Subsequently, 30 μL of 1× Permeabilization buffer was added prior to centrifuging the cells and discarding the supernatant. Stained cells were resuspended in 25 μL of flow cytometry staining buffer [PBS+0.2% bovine serum albumin (BSA)] and analyzed using an Intellicyt Ique Plus flow cytometer.
(§2) Table A-1 lists the maximum observed degradation of the IKZF1 protein, IKZF2 protein, and IKZF3 protein as measured in the Jurkat Cellular Degradation assay. The results in Table A-I were rounded to two digits. In the Jurkat Cellular Degradation assay, a value of 100% indicated no detectable protein remaining or complete degradation of the protein; and a value of 0% indicated no detectable degradation of the protein by the test compound.

IKZF4 Eos = biological target: T1, IKZF4 Eos (Homo sapiens, UniProt Q96SW2+Q9H2S9); experiment: Human Regulatory T Cell Reprogramming Assay (Eos)
T1 construct: Human CD4+ T cells were isolated from fresh healthy leukopaks; endogenous in cells; host or cells: FACS-sorted primary human regulatory T cells from healthy leukopaks
Experimental: Human CD4+ T cells were isolated from fresh healthy leukopaks (Stemcell Technologies) using the RosetteSep Human CD4+ T cell enrichment cocktail (Stemcell Technologies) and Ficoll density gradient centrifugation. Leukopaks were diluted with an equal volume of phosphate-buffered saline (PBS [Gibco]) supplemented with 2% fetal bovine serum (FBS, VWR Lifescience) and incubated with RosetteSep Human CD4^+ T cell enrichment cocktail for 20 minutes before layering on Ficoll-Paque Plus solution (GE Health Care). The cell-rich interface layer was harvested and washed twice with PBS supplemented with 2% FBS. Regulatory T cells were then isolated manually using the EasySep Human CD4^+CD1271WCD25^+ Regulatory T cell isolation kit (Stemcell Technologies) according to the manufacturer's instructions. Cells were rested overnight in Roswell Park Memorial Institute (RPMI) 1640 media (Gibco) supplemented with 10% FBS, Pen/Strep (Gibco), MEM-NEAA (Gibco), and sodium pyruvate (Gibco) in a humidified incubator (37° C., 5% CO2). Cells were then stained for CD4 (clone: RPA-T4, Biolegend), CD25 (clone: 2A3, BD Biosciences), and CD127 (clone: hIL-7R-M21, BD Biosciences). CD4+CD12710WCD25+ cells were sorted on a BD FACS Aria Fusion sorter to a purity of 95% or greater. Sorted cells were immediately used or cryopreserved for downstream assays.
Fresh or cryopreserved FACS-sorted CD4+CD127^lowCD25^+ Treg cells were cultured at 25,000-50,000 cells/well of 96-well round bottom plates in RPMI 1640 media (Gibco) supplemented with 10% FBS, Pen/Strep (Gibco), MEM-NEAA (Gibco), and sodium pyruvate (Gibco). Cells were stimulated with Treg Xpander beads (Thermo Fisher) at cells-to-beads ratio of 1:4 in the presence of 500 U/mL recombinant human IL-2 (Proleukin). Compounds were added at titrated doses and cells were incubated at 37° C., 5% CO2 for 12-13 days. Recombinant human IL-2 and compound were replenished every 2-3 days during the entire culture duration. On day 12 or 13, cells were restimulated with phorbol 12-myristate 13-acetate (PMA) and ionomycin in the presence of the protein transport inhibitors brefeldin A and monensin (eBioscience Cell Stimulation Cocktail plus protein transport inhibitors, 500×, Catalog number 00-4975-93) before proceeding with flow cytometry staining and analysis.
For flow cytometry staining, cells were washed twice with flow cytometry staining buffer (Thermo Fisher) and incubated in Human Tru-stain Fc block (Biolegend) for 10 minutes before adding eFluor780 viability dye (Thermo Fisher) and surface marker antibody cocktail for 30 minutes at 4° C. […] Data were analyzed using FlowJo version 10 and GraphPad Prism Software.
Table C-1 lists the maximum observed degradation of the IKZF2 protein and IKZF4 protein as measured in the Human Regulatory T Cell Reprogramming assay. […]

IKZF3 Aiolos = IKZF3 Aiolos (Homo sapiens, UniProt Q96SW2+Q9UKT9); experiment: Jurkat Cellular Degradation Assay (Aiolos); design: endogenous in cells; host or cells: Jurkat cells; conditions: Jurkat cells, 72 h
Experimental: as §1, §2

[1] = concentration reducing protein level by 50% compared to DMSO alone

T1 sequence (Q9H2S9 whole entry): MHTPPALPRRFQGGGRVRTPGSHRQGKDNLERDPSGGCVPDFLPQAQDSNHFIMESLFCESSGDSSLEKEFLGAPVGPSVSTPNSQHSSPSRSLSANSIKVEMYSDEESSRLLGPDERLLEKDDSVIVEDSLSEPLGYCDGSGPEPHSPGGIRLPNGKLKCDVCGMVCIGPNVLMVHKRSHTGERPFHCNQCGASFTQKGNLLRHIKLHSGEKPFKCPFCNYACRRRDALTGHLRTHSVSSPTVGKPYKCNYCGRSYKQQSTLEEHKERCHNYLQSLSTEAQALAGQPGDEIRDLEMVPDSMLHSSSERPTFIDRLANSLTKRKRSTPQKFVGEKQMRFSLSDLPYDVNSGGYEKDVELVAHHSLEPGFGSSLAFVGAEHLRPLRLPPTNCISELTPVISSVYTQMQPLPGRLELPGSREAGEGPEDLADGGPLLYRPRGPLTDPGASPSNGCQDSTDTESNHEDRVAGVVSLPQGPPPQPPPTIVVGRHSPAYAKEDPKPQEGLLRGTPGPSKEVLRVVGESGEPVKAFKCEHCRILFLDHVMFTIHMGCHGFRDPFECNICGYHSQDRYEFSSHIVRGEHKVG
T1 sequence (Q96SW2 whole entry): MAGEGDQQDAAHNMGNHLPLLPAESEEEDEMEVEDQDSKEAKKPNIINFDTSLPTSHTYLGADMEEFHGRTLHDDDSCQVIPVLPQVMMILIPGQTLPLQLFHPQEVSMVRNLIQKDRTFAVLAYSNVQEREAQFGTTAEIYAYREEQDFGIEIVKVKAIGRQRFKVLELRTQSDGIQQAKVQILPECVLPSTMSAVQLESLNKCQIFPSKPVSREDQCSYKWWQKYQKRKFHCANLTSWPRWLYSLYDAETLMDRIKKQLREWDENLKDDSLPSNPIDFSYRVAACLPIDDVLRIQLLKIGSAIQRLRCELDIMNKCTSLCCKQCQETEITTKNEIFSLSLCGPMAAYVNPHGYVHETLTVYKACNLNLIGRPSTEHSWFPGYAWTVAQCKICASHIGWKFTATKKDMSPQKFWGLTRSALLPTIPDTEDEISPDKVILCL
T1 sequence (Q16531 whole entry partner): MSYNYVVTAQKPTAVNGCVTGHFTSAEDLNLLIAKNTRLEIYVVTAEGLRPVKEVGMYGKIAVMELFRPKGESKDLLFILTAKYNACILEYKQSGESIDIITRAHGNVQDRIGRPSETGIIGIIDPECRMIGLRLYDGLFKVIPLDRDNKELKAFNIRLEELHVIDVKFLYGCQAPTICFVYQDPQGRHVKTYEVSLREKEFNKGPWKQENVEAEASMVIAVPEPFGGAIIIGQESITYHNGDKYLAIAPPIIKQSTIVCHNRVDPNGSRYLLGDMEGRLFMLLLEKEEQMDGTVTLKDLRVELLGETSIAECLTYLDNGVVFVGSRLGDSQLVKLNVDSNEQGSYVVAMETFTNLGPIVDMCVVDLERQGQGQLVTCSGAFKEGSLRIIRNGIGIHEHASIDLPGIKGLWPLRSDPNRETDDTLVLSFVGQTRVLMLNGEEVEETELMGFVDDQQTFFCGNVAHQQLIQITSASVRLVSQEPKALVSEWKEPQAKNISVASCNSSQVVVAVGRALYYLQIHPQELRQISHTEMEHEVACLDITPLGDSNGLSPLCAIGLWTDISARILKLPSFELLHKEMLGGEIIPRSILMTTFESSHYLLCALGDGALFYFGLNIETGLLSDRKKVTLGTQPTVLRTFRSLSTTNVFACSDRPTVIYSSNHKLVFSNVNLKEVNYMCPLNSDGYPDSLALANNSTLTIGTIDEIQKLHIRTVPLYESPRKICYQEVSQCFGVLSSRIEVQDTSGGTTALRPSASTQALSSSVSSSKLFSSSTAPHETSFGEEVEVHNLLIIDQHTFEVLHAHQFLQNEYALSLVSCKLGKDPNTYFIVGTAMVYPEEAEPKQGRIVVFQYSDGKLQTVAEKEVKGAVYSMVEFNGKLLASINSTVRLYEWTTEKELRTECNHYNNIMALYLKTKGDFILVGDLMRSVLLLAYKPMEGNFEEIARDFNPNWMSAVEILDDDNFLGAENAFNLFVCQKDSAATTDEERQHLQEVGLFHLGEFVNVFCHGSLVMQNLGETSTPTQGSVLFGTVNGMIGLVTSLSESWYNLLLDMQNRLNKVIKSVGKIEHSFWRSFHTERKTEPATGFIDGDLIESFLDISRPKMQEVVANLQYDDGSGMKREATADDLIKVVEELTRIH
Sequence of IKZF1 Ikaros (Q13422 whole entry): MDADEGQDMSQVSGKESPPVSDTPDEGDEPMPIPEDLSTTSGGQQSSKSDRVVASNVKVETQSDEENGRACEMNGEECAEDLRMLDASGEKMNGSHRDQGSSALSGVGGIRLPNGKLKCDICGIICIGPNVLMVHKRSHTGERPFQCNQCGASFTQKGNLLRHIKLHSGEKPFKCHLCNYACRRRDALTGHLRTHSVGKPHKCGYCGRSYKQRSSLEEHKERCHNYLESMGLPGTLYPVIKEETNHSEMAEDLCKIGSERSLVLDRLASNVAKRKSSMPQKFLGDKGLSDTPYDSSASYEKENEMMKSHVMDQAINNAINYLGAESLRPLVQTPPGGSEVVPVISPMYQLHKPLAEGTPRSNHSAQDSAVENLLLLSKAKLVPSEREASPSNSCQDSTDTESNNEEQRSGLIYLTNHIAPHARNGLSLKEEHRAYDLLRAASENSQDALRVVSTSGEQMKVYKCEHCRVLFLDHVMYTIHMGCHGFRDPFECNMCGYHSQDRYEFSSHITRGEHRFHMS
Sequence of IKZF1 Ikaros (Q96SW2 whole entry): as the sequence (Q96SW2 whole entry) above
Sequence of IKZF1 Ikaros (Q16531 whole entry partner): as the sequence (Q16531 whole entry partner) above
Sequence of IKZF3 Aiolos (Q9UKT9 whole entry): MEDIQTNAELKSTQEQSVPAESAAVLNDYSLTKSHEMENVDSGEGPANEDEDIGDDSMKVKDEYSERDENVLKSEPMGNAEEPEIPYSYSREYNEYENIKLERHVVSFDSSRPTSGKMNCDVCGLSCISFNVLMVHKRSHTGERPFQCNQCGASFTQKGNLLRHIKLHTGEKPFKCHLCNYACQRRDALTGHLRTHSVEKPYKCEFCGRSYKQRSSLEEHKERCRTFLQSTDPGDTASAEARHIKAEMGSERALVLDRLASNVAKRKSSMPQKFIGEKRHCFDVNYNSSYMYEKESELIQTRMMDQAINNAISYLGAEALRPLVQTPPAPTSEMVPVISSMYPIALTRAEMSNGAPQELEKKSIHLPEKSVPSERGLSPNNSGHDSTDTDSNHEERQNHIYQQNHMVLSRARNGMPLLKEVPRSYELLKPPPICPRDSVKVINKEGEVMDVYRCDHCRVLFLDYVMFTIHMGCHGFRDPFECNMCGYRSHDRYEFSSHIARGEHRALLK
Sequence of IKZF3 Aiolos (Q96SW2 whole entry): as the sequence (Q96SW2 whole entry) above
Sequence of IKZF3 Aiolos (Q16531 whole entry partner): as the sequence (Q16531 whole entry partner) above

DC50 (IKZF1 Ikaros; [1]): 90.9 nM | Dmax (IKZF1 Ikaros; human, read-out: IKZF1 Ikaros max % deg. observed): 69% | Dmax (IKZF4 Eos; Regulatory T cell, human, text summary of Table C-1, read-out: decreased the level of IKZF4 (Eos)): ≥ 71% | Dmax (IKZF4 Eos; Regulatory T cell, human Treg cells, stimulated, 12-13 days, read-out: IKZF4 Eos Maximum Observed Degradation): 71 to 72% | DC50 (IKZF4 Eos; human Treg cells, stimulated, 12-13 days, concentration reducing protein level by 50% compared to DMSO alone): 1.3 to 1.6 nM | Dmax (IKZF4 Eos; summary table, Human T Regulatory Cell Reprogramming Assay (Table C-1), read-out: IKZF4 Eos max % deg. observed (Table E)): 71 to 72% | DC50 (IKZF3 Aiolos; [1]): > 10000 nM | Dmax (IKZF3 Aiolos; human, read-out: IKZF3 Aiolos max % deg. observed): 48%
SMILES: Nc1nc(-c2ccc3c(c2F)CN(C2CCC(=O)NC2=O)C3=O)ccc1CN1CC(C2CCC(F)(F)CC2)C1 (centres unmarked) [Example 1, 3-(5-(6-Amino-5-((3-(4,4-difluorocyclohexyl)azetidin-1-yl)methyl)pyridin-2-yl)-4-fluoro-1-oxoisoindolin-2-yl) piperidine-2,6-dione]
